Several values for one entry are separate records, joined by “and”; a condition that tells them apart may be missing. Equal values may be shown once.
Each molecule was assayed on T1, GCaMP5-expressing T. gondii. Conditions: 100 uM zaprinast stimulation, 10 min pretreatment, mean of two replicates, 0.23 h, 10 µM.
T1 construct: whole extracellular parasites expressing GCaMP5 Ca2+ sensor
Set-up: species or system GCaMP5-expressing Toxoplasma gondii, extracellular; GCaMP5 fluorescence (cytosolic Ca2+) after 100 uM zaprinast in compound-pretreated extracellular parasites, background-subtracted, relative to zaprinast alone
Outline: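 Read-out is GCaMP5 calcium fluorescence (ex 485/em 525 nm) taken 4 min after 100 μM zaprinast at 37 °C, following 10 min compound pretreatment at 10 μM in duplicate biological replicates. Values are basal-subtracted fold change versus zaprinast-only controls; parasites held extracellular in Ringer's solution.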
In the case of `CS(=O)(=O)CCNCc1ccc(-c2ccc3ncnc(Nc4ccc(OCc5ccccc5)c(Cl)c4)c3c2)o1` [GW574783B], the “fold change in fluorescence relative to zaprinast alone” value is reported as 0.7755 and 0.8833.
In the case of `COC(=O)Nc1nc2cc(Oc3cccc(NC(=O)Nc4cc(C(F)(F)F)ccc4F)c3)ccc2[nH]1` [GW659386A], the “fold change in fluorescence relative to zaprinast alone” value is reported as 1.116 and 1.187.

Same assay, conditions: 100 uM zaprinast stimulation; 10 min pretreatment; mean of two replicates; 0.23 h
With `Fc1cc(Cl)ccc1Nc1ccnc2cc(-c3ccc(CN4CCOCC4)o3)ccc12` [GW560109X] the “fold change in fluorescence relative to zaprinast alone” value was 0.545.
In the case of `Fc1cc(Cl)ccc1Nc1ccnc2cc(-c3ccc(CN4CCCCC4)o3)ccc12` [GW560116X], the “fold change in fluorescence relative to zaprinast alone” value is reported as 0.6823.
For `N#Cc1ccc2c(-c3ccnc(NC4CC4)n3)c(-c3ccc(F)cc3)nn2c1` [GW561436X], the “fold change in fluorescence relative to zaprinast alone” value was 0.8796.
With `CS(=O)(=O)CCNCc1coc(-c2ccc3ncnc(Nc4ccc(OCc5ccccc5)cc4)c3c2)c1` [GW566221B] the “fold change in fluorescence relative to zaprinast alone” value was 0.9966.
With `CN1CCN(Cc2ccc(-c3ccc4c(Nc5ccc(Oc6ccccn6)cc5)ccnc4c3)o2)CC1` [GW567140X] the “fold change in fluorescence relative to zaprinast alone” value was 1.304.
`c1ccc(Oc2ccc(Nc3ccnc4cc(-c5ccc(CN6CCNCC6)o5)ccc34)cc2)nc1` [GW567142A] was tested, and the “fold change in fluorescence relative to zaprinast alone” value was 0.8742.
In the case of `c1ccc(Oc2ccc(Nc3ccnc4cc(-c5ccc(CN6CCCCC6)o5)ccc34)cc2)nc1` [GW567143X], the “fold change in fluorescence relative to zaprinast alone” value is reported as 0.8249.
`c1ccc(Oc2ccc(Nc3ccnc4cc(-c5ccc(CNCCN6CCOCC6)o5)ccc34)cc2)nc1` [GW567145X] was tested, and the “fold change in fluorescence relative to zaprinast alone” value was 0.643.
`CN(C)Cc1ccc(-c2ccc3c(Nc4ccc(Oc5ccccn5)cc4)ccnc3c2)o1` [GW567148X] was tested, and the “fold change in fluorescence relative to zaprinast alone” value was 1.129.
With `Nc1nccc(-c2c(-c3ccc(F)cc3)nn3cc(C(F)(F)F)ccc23)n1` [GW568326X] the “fold change in fluorescence relative to zaprinast alone” value was 1.261.
With `OCCCNc1nccc(-c2c(-c3ccc(F)cc3)nn3cc(C(F)(F)F)ccc23)n1` [GW569293X] the “fold change in fluorescence relative to zaprinast alone” value was 0.8575.
For `CS(=O)(=O)CCNCc1nc(-c2ccc3ncnc(Nc4ccc(OCc5cccc(C(F)(F)F)c5)cc4)c3c2)cs1` [GW569530A], the “fold change in fluorescence relative to zaprinast alone” value was 1.148.
For `CCN(CC)S(=O)(=O)c1ccc(OC)c(Nc2ncc(-c3ccccc3)o2)c1` [GW572401X], the “fold change in fluorescence relative to zaprinast alone” value was 1.034.
For `N#Cc1c(NC(=O)c2ccccc2F)sc2c1CCCC2` [GW572738X], the “fold change in fluorescence relative to zaprinast alone” value was 1.241.
`CS(=O)(=O)CCNCc1ccc(-c2ccc3ncnc(Nc4ccc(OCc5ccccc5)c(C(F)(F)F)c4)c3c2)o1` [GW574782A] was tested, and the “fold change in fluorescence relative to zaprinast alone” value was 0.7605.
In the case of `COc1ccc(Nc2ncc(-c3ccccc3)o2)cc1OC` [GW575533A], the “fold change in fluorescence relative to zaprinast alone” value is reported as 1.197.
`Cc1ccc(Nc2ccnc(Nc3cccc(C(N)=O)c3)n2)cc1O` [GW575808A] was tested, and the “fold change in fluorescence relative to zaprinast alone” value was 1.342.
In the case of `CS(=O)(=O)CCNCc1ccc(-c2ccc3ncnc(Nc4ccc(OCc5cccc(F)c5)c(C(F)(F)F)c4)c3c2)o1` [GW576484X], the “fold change in fluorescence relative to zaprinast alone” value is reported as 0.5624.
For `[O-][S+]1CCN(Cc2ccc(-c3ccc4ncnc(Nc5ccc(OCc6ccccc6)c(F)c5)c4c3)o2)CC1` [GW576924A], the “fold change in fluorescence relative to zaprinast alone” value was 0.1384.
For `COc1ccccc1Nc1ncc(-c2ccccc2)o1` [GW577921A], the “fold change in fluorescence relative to zaprinast alone” value was 0.9668.
For `CN1CCN(Cc2cccc(-c3ccc4c(Nc5ccc(Oc6ccccc6)cc5)ccnc4c3)c2)CC1` [GW578342X], the “fold change in fluorescence relative to zaprinast alone” value was 1.603.
In the case of `COc1cc(/C=N/Nc2ncnc3[nH]ncc23)ccc1O` [GW578748X], the “fold change in fluorescence relative to zaprinast alone” value is reported as 0.8277.
With `Cc1ccc(Nc2ccnc(Nc3ccc4c(c3)CS(=O)(=O)C4)n2)cc1O` [GW579362A] the “fold change in fluorescence relative to zaprinast alone” value was 1.38.
For `CS(=O)(=O)CCNCc1ccc(-c2ccc3ncnc(Nc4ccc(OCc5ccccc5)c(Br)c4)c3c2)o1` [GW580496A], the “fold change in fluorescence relative to zaprinast alone” value was 1.191.
In the case of `CCS(=O)(=O)c1ccc(OC)c(Nc2ncc(-c3cccc(OC)c3)o2)c1` [GW580509X], the “fold change in fluorescence relative to zaprinast alone” value is reported as 1.14.
`NC(=O)c1ccc2c(-c3ccnc(NCCCO)n3)c(-c3ccc(F)cc3)nn2c1` [GW581744X] was tested, and the “fold change in fluorescence relative to zaprinast alone” value was 0.8342.
With `Cc1ccc(Nc2ccnc(Nc3ccc(C)c(F)c3)n2)cc1O` [GW582868A] the “fold change in fluorescence relative to zaprinast alone” value was 1.057.
In the case of `[O-][S+]1CCN(Cc2ccc(-c3ccc4ncnc(Nc5ccc(OCc6ccccc6)c(Cl)c5)c4c3)o2)CC1` [GW583373A], the “fold change in fluorescence relative to zaprinast alone” value is reported as 0.2727.
`NS(=O)(=O)c1ccc(NC=C2C(=O)Nc3ccc4ncsc4c32)cc1` [GW589933X] was tested, and the “fold change in fluorescence relative to zaprinast alone” value was 1.196.
`COC(=O)Nc1nc2ccc(Oc3ccc(NC(=O)Nc4cccc(Cl)c4)cc3)cc2[nH]1` [GW589961A] was tested, and the “fold change in fluorescence relative to zaprinast alone” value was 1.185.
With `CCS(=O)(=O)c1ccc(OC)c(Nc2ncc(-c3ccc(F)cc3)o2)c1` [GW591947A] the “fold change in fluorescence relative to zaprinast alone” value was 1.203.
For `COc1ccc(NC(=O)c2ccc(-c3cc(-c4nnc(C)o4)ccc3C)cc2)cc1` [GW595885X], the “fold change in fluorescence relative to zaprinast alone” value was 1.221.
In the case of `FC(F)(F)c1ccc(-c2cc(-c3cn[nH]c3-c3ccccn3)ccn2)cc1` [GW599550X], the “fold change in fluorescence relative to zaprinast alone” value is reported as 1.459.
For `Cc1nnc(-c2ccc(C)c(-c3ccc(C(=O)Nc4cccc(C#N)c4)cc3)c2)o1` [GW607117X], the “fold change in fluorescence relative to zaprinast alone” value was 1.107.
In the case of `Cc1nnc(-c2ccc(C)c(-c3ccc(C(=O)O)cc3)c2)o1` [GW608005X], the “fold change in fluorescence relative to zaprinast alone” value is reported as 1.249.
`COc1cc(Nc2nccc(Nc3ccc4c(C)n[nH]c4c3)n2)cc(OC)c1OC` [GW612286X] was tested, and the “fold change in fluorescence relative to zaprinast alone” value was 0.875.
For `O=S(=O)(CCOCc1ccc(-c2ccc3ncnc(Nc4ccc(OCc5cccc(F)c5)c(Cl)c4)c3c2)o1)c1ccccc1` [GW615311X], the “fold change in fluorescence relative to zaprinast alone” value was 1.258.
With `CS(=O)(=O)CCN(CC#N)Cc1ccc(-c2ccc3ncnc(Nc4ccc(OCc5cccc(F)c5)c(Cl)c4)c3c2)o1` [GW616030X] the “fold change in fluorescence relative to zaprinast alone” value was 1.169.
`CCS(=O)(=O)c1ccc(OC)c(Nc2ncc(-c3cccc(C(C)=O)c3)o2)c1` [GW621431X] was tested, and the “fold change in fluorescence relative to zaprinast alone” value was 1.216.
For `CN1CCN(CCCNc2nccc(-c3c(-c4ccc(F)cc4)nn4cc(C(F)(F)F)ccc34)n2)CC1` [GW621581X], the “fold change in fluorescence relative to zaprinast alone” value was 0.8628.
`CCCN(CCS(C)(=O)=O)Cc1ccc(-c2ccc3ncnc(Nc4ccc(OCc5cccc(F)c5)c(Cl)c4)c3c2)o1` [GW621823A] was tested, and the “fold change in fluorescence relative to zaprinast alone” value was 0.6108.
In the case of `CN1CCN(CCCNc2nccc(-c3c(-c4ccc(F)cc4)nn4cc(C(N)=O)ccc34)n2)CC1` [GW622475X], the “fold change in fluorescence relative to zaprinast alone” value is reported as 0.5684.
In the case of `COc1cc(Nc2ncc(-c3ccccc3)o2)cc(OC)c1OC` [GW627512B], the “fold change in fluorescence relative to zaprinast alone” value is reported as 0.9208.
For `OCCCNc1nccc(-c2c(-c3cccc(C(F)(F)F)c3)nn3cc(C(F)(F)F)ccc23)n1` [GW630813X], the “fold change in fluorescence relative to zaprinast alone” value was 1.109.
`Cc1cccc(Nc2ncc(-c3ccccc3)o2)c1` [GW632046X] was tested, and the “fold change in fluorescence relative to zaprinast alone” value was 1.202.
With `COc1ccc(COc2ccc(Cc3cnc(N)nc3N)cc2OC)cc1` [GW632580X] the “fold change in fluorescence relative to zaprinast alone” value was 1.155.
For `O=S(=O)(CCNCc1ccc(-c2ccc3ncnc(Nc4ccc(OCc5cccc(F)c5)c(Cl)c4)c3c2)o1)c1ccccc1` [GW633459A], the “fold change in fluorescence relative to zaprinast alone” value was 1.016.
For `CC(C)S(=O)(=O)N1CCN(Cc2ccc3c(c2)nc(NC(=O)c2ccsc2)n3C[C@H](O)c2ccccc2)CC1` [GW635815X], the “fold change in fluorescence relative to zaprinast alone” value was 1.196.
With `N#CCc1ccc(Nc2nccc(Nc3ccc(Oc4ccccc4)cc3)n2)cc1` [GW639905A] the “fold change in fluorescence relative to zaprinast alone” value was 1.192.
With `COc1ccc(-c2cc3c(N)ncnc3o2)cc1` [GW642138X] the “fold change in fluorescence relative to zaprinast alone” value was 1.142.
`COc1cc(C=NNc2ncnc3c2cnn3Cc2ccccc2)ccc1O` [GW643971X] was tested, and the “fold change in fluorescence relative to zaprinast alone” value was 1.09.
In the case of `Fc1cccc(COc2ccc(Nc3ncncc3C#Cc3ccccc3)cc2Cl)c1` [GW651576X], the “fold change in fluorescence relative to zaprinast alone” value is reported as 1.149.
In the case of `COC(=O)Nc1nc2ccc(Oc3ccc(NC(=O)Nc4cc(C(F)(F)F)ccc4F)cc3)cc2[nH]1` [GW654607A], the “fold change in fluorescence relative to zaprinast alone” value is reported as 1.325.
With `NC(=O)c1cccc(Nc2nccc(Nc3ccc(Oc4c(Cl)cccc4Cl)c(Cl)c3)n2)c1` [GW659009A] the “fold change in fluorescence relative to zaprinast alone” value was 1.248.
For `Nc1ccc(C#Cc2cncnc2Nc2ccc(OCc3cccc(F)c3)c(Cl)c2)cc1` [GW659893X], the “fold change in fluorescence relative to zaprinast alone” value was 0.972.
In the case of `O=C(NCCCN1CCOCC1)c1cccc(Nc2nccc(Nc3ccc(Oc4ccccc4)cc3)n2)c1` [GW663929X], the “fold change in fluorescence relative to zaprinast alone” value is reported as 1.429.
In the case of `N#Cc1cnc2cc(-c3cnc(CNCCN4CCOCC4)s3)ccc2c1Nc1ccc(Oc2ccccc2)cc1` [GW664114X], the “fold change in fluorescence relative to zaprinast alone” value is reported as 1.528.
In the case of `CCc1cccc(NC(=O)Nc2ccc(Oc3ccc4nc(NC(=O)OC)[nH]c4c3)cc2)c1` [GW673715X], the “fold change in fluorescence relative to zaprinast alone” value is reported as 1.098.
With `CCS(=O)(=O)c1ccc(OC)c(Nc2ncc(-c3cccc(-c4ccccc4F)c3)o2)c1` [GW678313X] the “fold change in fluorescence relative to zaprinast alone” value was 1.071.
`Cc1cccc(-c2cc(-c3cn[nH]c3-c3ccccn3)ccn2)c1` [GW679395X] was tested, and the “fold change in fluorescence relative to zaprinast alone” value was 0.9312.
With `FC(F)(F)c1ccccc1-c1cc(-c2cn[nH]c2-c2ccccn2)ccn1` [GW679396X] the “fold change in fluorescence relative to zaprinast alone” value was 0.8259.
In the case of `Cc1ccccc1-c1cc(-c2cn[nH]c2-c2ccccn2)ccn1` [GW680061X], the “fold change in fluorescence relative to zaprinast alone” value is reported as 0.8106.

Same assay, conditions: 0.23 h, 10 µM
`NS(=O)(=O)c1ccc(Nc2ncc(-c3ccccc3)o2)cc1` [GW572399X] was tested, and the “% of control remaining” value was 1.225.
`COc1cc(/C=N/Nc2ncnc3c2cnn3C(C)C)ccc1O` [GW644007X] was tested, and the “% of control remaining” value was 1.177.

— publication PMC4850295, “Using a Genetically Encoded Sensor to Identify Inhibitors of Toxoplasma gondii Ca^2+ Signaling” (The Journal of Biological Chemistry, 2016)
